ChEMBL document CHEMBL1201862, “PubChem BioAssay data set” (2004)
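Dose response: 5 concentrations. Exposure: 48 h. Format: 96-well plates. Endpoint: linear interpolation; highest concentration if not reached. GI50: concentration for 50% inhibition of growth.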 Activity calls are given as the source filed them. Rule as the data show it: active = GI50 up to about 1.1 µM and inactive = higher.

Key:
Experiment in all cases: NCI tumour cell line growth inhibition, 48 h
[1] = system: UACC-257
[2] = system: HCC 2998
[3] = system: SK-MEL-2
[4] = system: OVCAR-5
[5] = system: EKVX
[6] = system: NCI/ADR-RES
[7] = system: PC-3
[8] = system: MDA-N
[9] = system: MOLT-4
[10] = system: MDA-MB-231
[11] = system: MDA-MB-435
[12] = system: A549
[13] = system: HT-29
[14] = system: K562
[15] = system: OVCAR-3
[16] = system: NCI-H226
[17] = system: CCRF-CEM
[18] = system: RXF 393
[19] = system: NCI-H23
[20] = system: Hs-578T

| SMILES | GI50 [1] | GI50 [2] | GI50 [3] | GI50 [4] | GI50 [5] | GI50 [6] | GI50 [7] | GI50 [8] | GI50 [9] | GI50 [10] | GI50 [11] | GI50 [12] | GI50 [13] | GI50 [14] | GI50 [15] | GI50 [16] | GI50 [17] | GI50 [18] | GI50 [19] | GI50 [20] |
| --- | --- | --- | --- | --- | --- | --- | --- | --- | --- | --- | --- | --- | --- | --- | --- | --- | --- | --- | --- | --- |
| COc1cc(N(C)C)ccc1C=c1c2ccccc2n2c1cc(-c1ccccc1)[n+]2C | 0.319 µM (active) | 0.48 µM (active) | 0.469 µM (active) | 0.566 µM (active) | 0.575 µM (active) | 6.47 µM (inactive) | 0.233 µM (active) | 0.308 µM (active) | 0.222 µM (active) | 0.332 µM (active) | 0.358 µM (active) | 0.197 µM (active) | 0.325 µM (active) | 0.177 µM (active) | 0.392 µM (active) | 0.518 µM (active) | 0.208 µM (active) | 0.345 µM (active) | 0.237 µM (active) | – |
| O=C(/C=C/c1ccccc1)c1cc(C(=O)/C=C/c2ccccc2)c(O)cc1O | > 100 µM (inactive) | 88.3 µM (inactive) | > 100 µM (inactive) | > 100 µM (inactive) | 18.7 µM (inactive) | – | > 100 µM (inactive) | > 100 µM (inactive) | > 100 µM (inactive) | – | > 100 µM (inactive) | > 100 µM (inactive) | > 100 µM (inactive) | – | – | – | – | – | > 100 µM (inactive) | 26.4 µM (inactive) |
| CC#CC(O)(C(=O)OC1CC(C)N(C)C(C)(C)C1)C1CCCC1 (configuration not stated) | > 100 µM (inactive) | > 100 µM (inactive) | – | > 100 µM (inactive) | > 100 µM (inactive) | 29 µM (inactive) | > 100 µM (inactive) | > 100 µM (inactive) | > 100 µM (inactive) | > 100 µM (inactive) | > 100 µM (inactive) | > 100 µM (inactive) | > 100 µM (inactive) | > 100 µM (inactive) | > 100 µM (inactive) | > 100 µM (inactive) | > 100 µM (inactive) | > 100 µM (inactive) | > 100 µM (inactive) | – |
| Cc1cc(C)c(N[S+]([O-])c2ccc(Cl)cc2)c(C)c1 (configuration not stated) | > 100 µM (inactive) | 83.4 µM (inactive) | – | > 100 µM (inactive) | > 100 µM (inactive) | > 100 µM (inactive) | > 100 µM (inactive) | 71.1 µM (inactive) | > 100 µM (inactive) | – | 51.5 µM (inactive) | > 100 µM (inactive) | > 100 µM (inactive) | > 100 µM (inactive) | > 100 µM (inactive) | > 100 µM (inactive) | > 100 µM (inactive) | > 100 µM (inactive) | > 100 µM (inactive) | – |
| O=C(COc1ccc(Cl)c(Cl)c1)Nc1ccc[n+](Cc2ccc(S(=O)(=O)F)c(Cl)c2)c1 | > 100 µM (inactive) | – | > 100 µM (inactive) | > 100 µM (inactive) | > 100 µM (inactive) | > 100 µM (inactive) | > 100 µM (inactive) | – | 25.4 µM (inactive) | 36.6 µM (inactive) | > 100 µM (inactive) | > 100 µM (inactive) | > 100 µM (inactive) | > 100 µM (inactive) | > 100 µM (inactive) | > 100 µM (inactive) | – | > 100 µM (inactive) | > 100 µM (inactive) | > 100 µM (inactive) |
| O=C(NNS(=O)(=O)c1ccccc1)c1csc(NC(=S)NC2CCCCC2)n1 | 22.8 µM (inactive) | 29 µM (inactive) | 22.3 µM (inactive) | 52.1 µM (inactive) | 35.6 µM (inactive) | 38.4 µM (inactive) | 34.2 µM (inactive) | 18.5 µM (inactive) | 36.5 µM (inactive) | 22.8 µM (inactive) | 20.6 µM (inactive) | 35.2 µM (inactive) | 33.6 µM (inactive) | 56.6 µM (inactive) | 4.07 µM (inactive) | 67.5 µM (inactive) | 39.6 µM (inactive) | – | 48 µM (inactive) | – |
| COC(=O)C1(Cc2cccc(Cl)c2)CCCCCCN1C(=O)c1ccccc1 (configuration not stated) | > 10 µM (inactive) | 13.6 µM (inactive) | – | 15.8 µM (inactive) | 12 µM (inactive) | 16.9 µM (inactive) | 4.98 µM (inactive) | 16.5 µM (inactive) | 8.89 µM (inactive) | 13 µM (inactive) | 18.9 µM (inactive) | 14.5 µM (inactive) | 12.9 µM (inactive) | 10.7 µM (inactive) | 6.71 µM (inactive) | 25.1 µM (inactive) | 13.1 µM (inactive) | – | 17.2 µM (inactive) | – |
| CCN(CC)C(=S)N/N=C/c1ccccn1 | < 0.01 µM (active) | 0.149 µM (active) | 0.625 µM (active) | 0.2 µM (active) | < 0.01 µM (active) | < 0.01 µM (active) | < 0.01 µM (active) | 0.166 µM (active) | < 0.01 µM (active) | < 0.01 µM (active) | 0.12 µM (active) | 0.0239 µM (active) | < 0.01 µM (active) | < 0.01 µM (active) | < 0.01 µM (active) | < 0.0138 µM (active) | < 0.01 µM (active) | – | < 0.01 µM (active) | – |
